Laboratory results published in patent publication US20250129028A1, “COMPOUNDS AND METHODS FOR YAP/TEAD MODULATION AND INDICATIONS THEREFOR” (Opna Bio SA, priority 2022, published 2025).

Test system: TEAD-dependent transcription
Assay: TEAD-dependent transcription cell-based reporter assay (MSTO-211H+12XGTIIC luciferase)
Design: species or system human
Conditions: Homo sapiens; MSTO-211H+12XGTIIC cell line, luciferase signal normalized to cell viability, 24 hours compound incubation; read-out: MSTO-211H GMean IC50 (uM) Cell Assay Reporter Cell Variant: TEAD
From the text: Determine Inhibitor Activity Against TEAD-Dependent Transcription in a Cell-Based Reporter Assay
The human mesothelioma cell line MSTO-211H was stably transfected with a pGL4.21 plasmid containing a synthetic promoter with 12 copies of the GTIIC TEAD response element that drives the expression of a luciferase reporter gene^1 using Lipofectamine transfection reagent (Thermo Fisher). Transfected cells were selected using puromycin and single cell clones expressing this construct (referred to as MSTO-211H+12XGTIIC) were generated by limiting dilution. MSTO-211H cells was characterized by genetic alterations in key components of the Hippo pathway^2, resulting in up-regulation of YAP/TEAD-mediated transcription. […] To evaluate TEAD inhibitors, the MSTO-211H+12XGTIIC cell line was seeded in a 96-well plate in 50 μL of culture media at 1×10^4 cells per well and incubated at 37° C. overnight. Serial dilutions of compounds (in total volume of 50 μL of culture media) were added to the cells and incubated at 37° C. for 24 hours. Each plate included cells treated with DMSO as high controls and cells treated with 20 μM of the reference compound K-975 (a known TEAD inhibitor)^3 as low controls. Cell viability was assayed by the addition of 25 μL of CellTiter-Fluor reagent (Promega) followed by a 30-minute incubation at 37° C. and quantification of the fluorescence signal (Ex400/Em505). Subsequently, luciferase expression was assayed by the addition of 25 μL of ONE-Glo reagent (Promega) followed by a 10-minute incubation at room temperature and quantification of the luminescence signal. The luminescence signal was normalized to the fluorescence signal to correct for any loss in cell viability over the 24-hour compound incubation period. The percentage of inhibition of normalized luminescence signal, indicative of compound-mediated inhibition of TEAD-dependent transcription, at individual compound concentrations relative to high and low controls was calculated. The data were analyzed by using nonlinear regression to generate IC50 values for individual compounds.

How did the IC50 turn out when O=C(Cc1c[nH]c(=O)[nH]c1=O)N1CCc2ccc(Oc3ccc(C(F)(F)F)c(F)c3)cc2C1 [P-0139, 5-(2-(7-(3-fluoro-4-(trifluoromethyl)phen-oxy)-3,4-dihydroisoquin-olin-2(1H)-yl)-2-oxoeth-yl)pyrimidine-2,4(1H, 3H)-dione] was run?
Its IC50 is 0.001 to 10 µM.

For O=C(CCn1cncn1)N1CCc2ccc(Oc3ccc(C(F)(F)F)c(F)c3)cc2C1 [P-0153, 1-(7-(3-fluoro-4-(trifluoromethyl)phen-oxy)-3,4-dihydroisoquin-olin-2(1H)-yl)-3-(1H-1,2,4-triazol-1-yl)propan-1-one], which IC50 is on record?
Its IC50 is 0.001 to 10 µM.

C=CC(=O)N1CC(C(=O)N2CCc3c(cccc3Oc3ccc(C(F)(F)F)cc3)C2)C1 [P-0255, 1-(3-(5-(4-(trifluorometh-yl)phenoxy)-1,2,3,4-tetrahydroisoquinoline-2-carbonyl)azetidin-1-yl)prop-2-en-1-one] was tested. Which IC50 did it give?
Its IC50 is 0.001 to 10 µM.

How did the IC50 turn out when CS(=O)(=O)CCC(=O)N1CCc2c(cccc2-c2ccc(C(F)(F)F)cc2)C1 [P-0271, 3-(methylsulfonyl)-1-(5-(4-(trifluoromethyl)phen-yl)-3,4-dihydroisoquin-olin-2(1H)-yl)propan-1-one] was run?
The IC50 was 0.001 to 10 µM.

With O=C1CC(C(=O)N2CCc3ccc(Oc4ccc(C(F)(F)F)cc4)cc3C2)CN1 (centres unmarked) [P-0088, 4-(7-(4-(trifluorometh-yl)phenoxy)-1,2,3,4-tetrahydroisoquinoline-2-carbonyl)pyrrolidin-2-one] as the compound, how does the IC50 read?
Its IC50 is 0.001 to 10 µM.

How did the IC50 turn out when C[C@H](NC(=O)N1CCc2c(cccc2Oc2ccc(C(F)(F)F)cc2)C1)C1CC1 [P-0265, (S)-N-(1-cyclopropyl-ethyl)-5-(4-(trifluoro-methyl)phenoxy)-3,4-dihydroisoquinoline-2(1H)-carboxamide] was run?
The IC50 was 0.001 to 10 µM.

How did the IC50 turn out when O=C(NC1CC1)N1CCc2ccc(Oc3ccc(C(F)(F)F)cc3)cc2C1 [P-0004, N-cyclopropyl-7-(4-(trifluoromethyl)phen-oxy)-3,4-dihydroiso-quinoline-2(1H)-carbox-amide] was run?
The IC50 was 0.001 to 10 µM.

CS(=O)(=O)CCC(=O)N1CCc2ccc(Oc3ccc(C(F)(F)F)cc3)cc2C1C1CCC(C(F)(F)F)CC1 (centres unmarked) [P-0212, 3-(methylsulfonyl)-1-(1-(4-(trifluoromethyl)-cyclohexyl)-7-(4-(trifluoromethyl)phen-oxy)-3,4-dihydroisoquin-olin-2(1H)-yl)propan-1-one] was tested. Which IC50 did it give?
The IC50 was 0.001 to 10 µM.

O=C=CCC(=O)N1CCc2ccc(Oc3ccc(C(F)(F)F)cc3)cc2C1 [P-0166, 4-(7-(4-(trifluoromethyl)-phenoxy)-3,4-dihydroiso-quinolin-2(1H)-yl)but-1-ene-1,4-dione] was tested. Which IC50 did it give?
Its IC50 is 0.001 to 10 µM.

With CCCCS(=O)(=O)N1CCc2ccc(Oc3ccc(C(F)(F)F)cc3)cc2C1 [P-0034, 2-(butylsulfonyl)-7-(4-(trifluoromethyl)phen-oxy)-1,2,3,4-tetrahydro-isoquinoline] as the compound, how does the IC50 read?
The IC50 was 0.001 to 10 µM.

With O=C1NCCC1CC(=O)N1CCc2ccc(Oc3ccc(C(F)(F)F)c(F)c3)cc2C1 (centres unmarked) [P-0142, 3-(2-(7-(3-fluoro-4-(trifluoromethyl)phen-oxy)-3,4-dihydroisoquin-olin-2(1H)-yl)-2-oxoeth-yl)pyrrolidin-2-one] as the compound, how does the IC50 read?
Its IC50 is 0.001 to 10 µM.

How did the IC50 turn out when O=S(=O)(C1CC1)N1CCc2ccc(Oc3ccc(C(F)(F)F)cc3)cc2C1 [P-0006, 2-(cyclopropylsulfonyl)-7-(4-(trifluoromethyl)-phenoxy)-1,2,3,4-tetra-hydroisoquinoline] was run?
The IC50 was 0.001 to 10 µM.

How did the IC50 turn out when O=C(Cc1cn[nH]c1)N1CCc2ccc(Oc3ccc(C(F)(F)F)cc3)cc2C1 [P-0099, 2-(1H-pyrazol-4-yl)-1-(7-(4-(trifluoromethyl)phen-oxy)-3,4-dihydroisoquin-olin-2(1H)-yl)ethan-1-one] was run?
Its IC50 is 10 to 100 µM.

For O=C(NC1CCCC1)N1CCc2ccc(Oc3ccc(C(F)(F)F)cc3)cc2C1 [P-0037, N-cyclopentyl-7-(4-(trifluoromethyl)phen-oxy)-3,4-dihydroiso-quinoline-2(1H)-carbox-amide], which IC50 is on record?
The IC50 was 0.001 to 10 µM.

Which IC50 does the source give for O=C(CCc1cn[nH]c1)N1CCc2c(cccc2Oc2ccc(C(F)(F)F)cc2)C1 [P-0248, 3-(1H-pyrazol-4-yl)-1-(5-(4-(trifluoromethyl)-phenoxy)-3,4-dihydro-isoquinolin-2(1H)-yl)pro-pan-1-one] here?
Its IC50 is 0.001 to 10 µM.

For CS(=O)(=O)N1CCc2ccc(Oc3ccc(C(F)(F)F)cc3)cc2C1 [P-0005, 2-(methylsulfonyl)-7-(4-(trifluoromethyl)phen-oxy)-1,2,3,4-tetrahydro-isoquinoline], which IC50 is on record?
The IC50 was 0.001 to 10 µM.

With CCC1c2cc(Oc3ccc(C(F)(F)F)cc3)ccc2CCN1C(=O)CNC(N)=O (centres unmarked) [P-0219, 1-(2-(1-ethyl-7-(4-(trifluoromethyl)phen-oxy)-3,4-dihydroisoquin-olin-2(1H)-yl)-2-oxoeth-yl)urea] as the compound, how does the IC50 read?
The IC50 was 0.001 to 10 µM.

For O=C(Cc1c[nH]cn1)N1CCc2ccc(Oc3ccc(C(F)(F)F)cc3)cc2C1 [P-0164, 2-(1H-imidazol-4-yl)-1-(7-(4-(trifluoromethyl)-phenoxy)-3,4-dihydroiso-quinolin-2(1H)-yl)ethan-1-one], which IC50 is on record?
Its IC50 is 0.001 to 10 µM.

O=C(NC1CCCC1)N1CCc2c(cccc2Oc2ccc(C(F)(F)F)cc2)C1 [P-0232, N-cyclopentyl-5-(4-(trifluoromethyl)phen-oxy)-3,4-dihydroisoquin-oline-2(1H)-carboxamide] was tested. Which IC50 did it give?
Its IC50 is 0.001 to 10 µM.

With Nc1ccc(C(=O)N2CCc3c(cccc3Oc3ccc(C(F)(F)F)cc3)C2)cn1 [P-0245, (6-aminopyridin-3-yl)(5-(4-(trifluoromethyl)phen-oxy)-3,4-dihydroisoquin-olin-2(1H)-yl)methanone] as the compound, how does the IC50 read?
Its IC50 is 0.001 to 10 µM.

With N=C(N)NCCC(=O)N1CCc2ccc(Oc3ccc(C(F)(F)F)cc3)cc2C1 [P-0106, 1-(3-oxo-3-(7-(4-(trifluoromethyl)phen-oxy)-3,4-dihydroisoquin-olin-2(1H)-yl)propyl)-guanidine] as the compound, how does the IC50 read?
The IC50 was 0.001 to 10 µM.

How did the IC50 turn out when CNS(=O)(=O)NCC(=O)N1CCc2ccc(Oc3ccc(C(F)(F)F)cc3)cc2C1 [P-0128, N-methyl-N′-(2-(7-(4-(trifluoromethyl)phen-oxy)-3,4-dihydroisoquin-olin-2(1H)-yl)-2-oxoeth-yl)sulfamide] was run?
The IC50 was 0.001 to 10 µM.

O=C1CCC(C(=O)N2CCc3ccc(Oc4ccc(C(F)(F)F)cc4)cc3C2)CN1 (centres unmarked) [P-0129, 5-(7-(4-(trifluoromethyl)-phenoxy)-1,2,3,4-tetra-hydroisoquinoline-2-carbonyl)piperidin-2-one] was tested. Which IC50 did it give?
Its IC50 is 0.001 to 10 µM.

Which IC50 does the source give for CN(C)CCCC(=O)N1CCc2c(cccc2Oc2ccc(C(F)(F)F)cc2)C1 [P-0263, 4-(dimethylamino)-1-(5-(4-(trifluoromethyl)phen-oxy)-3,4-dihydroisoquin-olin-2(1H)-yl)butan-1-one] here?
Its IC50 is 0.001 to 10 µM.

With N#CCCS(=O)(=O)N1CCc2ccc(Oc3ccc(C(F)(F)F)cc3)cc2C1 [P-0049, 3-((7-(4-(trifluorometh-yl)phenoxy)-3,4-dihydro-isoquinolin-2(1H)-yl)sul-fonyl)propanenitrile] as the compound, how does the IC50 read?
Its IC50 is 0.001 to 10 µM.

Which IC50 does the source give for O=C(CCC(=O)C(F)(F)F)N1CCc2ccc(Oc3ccc(C(F)(F)F)cc3)cc2C1 [P-0076, 5,5,5-trifluoro-1-(7-(4-(trifluoromethyl)phen-oxy)-3,4-dihydroisoquin-olin-2(1H)-yl)pentane-1,4-dione] here?
Its IC50 is 0.001 to 10 µM.

O=C(Cc1nnn[nH]1)N1CCc2ccc(Oc3ccc(C(F)(F)F)c(F)c3)cc2C1 [P-0148, 1-(7-(3-fluoro-4-(trifluoromethyl)phen-oxy)-3,4-dihydroisoquin-olin-2(1H)-yl)-2-(1H-tetrazol-5-yl)ethan-1-one] was tested. Which IC50 did it give?
Its IC50 is 0.001 to 10 µM.

How did the IC50 turn out when O=C(Cc1cocn1)N1CCc2c(cccc2Oc2ccc(C(F)(F)F)cc2)C1 [P-0246, 2-(oxazol-4-yl)-1-(5-(4-(trifluoromethyl)phen-oxy)-3,4-dihydroisoquin-olin-2(1H)-yl)ethan-1-one] was run?
Its IC50 is 0.001 to 10 µM.

With CS(=O)(=O)CCNC(=O)N1CCc2c(cccc2-c2ccc(C(F)(F)F)cc2)C1 [P-0276, N-(2-(methylsulfonyl)-ethyl)-5-(4-(trifluoro-methyl)phenyl)-3,4-dihydroisoquinoline-2(1H)-carboxamide] as the compound, how does the IC50 read?
The IC50 was 0.001 to 10 µM.

With NC(=O)NCC(=O)N1CCc2c(cccc2Oc2ccc(C(F)(F)F)cc2)C1 [P-0270, 1-(2-oxo-2-(5-(4-(trifluoromethyl)phen-oxy)-3,4-dihydroisoquin-olin-2(1H)-yl)ethyl)urea] as the compound, how does the IC50 read?
Its IC50 is 0.001 to 10 µM.

N#Cc1nc(N2CCc3ccc(Oc4ccc(C(F)(F)F)cc4)cc3C2)cs1 [P-0134, 4-(7-(4-(trifluorometh-yl)phenoxy)-3,4-dihydro-isoquinolin-2(1H)-yl)thi-azole-2-carbonitrile] was tested. Which IC50 did it give?
The IC50 was 0.001 to 10 µM.

Same assay, conditions: MSTO-211H+12XGTIIC cell line, luciferase signal normalized to cell viability, 24 hours compound incubation; read-out: MSTO-211H GMean IC50 (uM) Cell Assay Reporter Cell Variant: TEAD

For C=CC(=O)N1CCC(C2c3cc(Oc4ccc(C(F)(F)F)cc4)ccc3CCN2C(=O)CCS(C)(=O)=O)C1 (single isomer, unassigned) [P-0218, 1-(3-(2-(3-(methylsulfonyl)propanoyl)-7-(4-(trifluoromethyl)phenoxy)-1,2,3,4-tetrahydroisoquinolin-1-yl)pyrrolidin-1-yl)prop-2-en-1-one], which IC50 is on record?
Its IC50 is 0.001 to 10 µM.
